Our source for the inhibition values is patent US8791132B2, “Compounds and methods for treatment of hypertension” (Medivation Technologies, Inc., priority 2011, dated 2014).

Assay [1] addresses T1, human recombinant adrenergic α2A receptor (Homo sapiens, UniProt P08913).
T1 construct: expressed in transfected cells; host or cells: insect Sf9 cells
T1 sequence (P08913 1-465): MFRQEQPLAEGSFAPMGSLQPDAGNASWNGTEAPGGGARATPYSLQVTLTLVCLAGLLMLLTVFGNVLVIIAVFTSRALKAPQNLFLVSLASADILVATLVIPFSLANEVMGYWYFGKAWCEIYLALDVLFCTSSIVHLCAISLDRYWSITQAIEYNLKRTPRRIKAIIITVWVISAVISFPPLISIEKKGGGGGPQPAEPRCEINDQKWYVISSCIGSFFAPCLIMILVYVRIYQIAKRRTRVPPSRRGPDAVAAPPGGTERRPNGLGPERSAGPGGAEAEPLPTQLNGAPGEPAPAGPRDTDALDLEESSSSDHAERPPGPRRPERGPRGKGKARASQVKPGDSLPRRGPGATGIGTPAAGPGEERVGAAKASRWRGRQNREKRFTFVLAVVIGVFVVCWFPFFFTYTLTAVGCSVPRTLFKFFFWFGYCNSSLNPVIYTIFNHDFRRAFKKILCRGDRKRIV
Nature of the assay: Radioligand binding, adrenergic α2A ([3H]MK-912). As to conditions: read-out: Percentage inhibition of ligand binding, Adrenergic α2A (0.1 μM), compound at 0.1 μM; [3H]MK-912; repeat datapoints each shown. The method in brief:
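Displacement of 1 nM [3H]MK-912 from receptor produced in insect Sf9 cells was measured after 60 min at 25 °C. Readout: percent inhibition of specific binding.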

The target of assay [2] is T2, human recombinant adrenergic α2B receptor (Homo sapiens, UniProt P18089).
T2 construct: expressed in transfected cells; host or cells: CHO-K1
T2 sequence (P18089 1-450): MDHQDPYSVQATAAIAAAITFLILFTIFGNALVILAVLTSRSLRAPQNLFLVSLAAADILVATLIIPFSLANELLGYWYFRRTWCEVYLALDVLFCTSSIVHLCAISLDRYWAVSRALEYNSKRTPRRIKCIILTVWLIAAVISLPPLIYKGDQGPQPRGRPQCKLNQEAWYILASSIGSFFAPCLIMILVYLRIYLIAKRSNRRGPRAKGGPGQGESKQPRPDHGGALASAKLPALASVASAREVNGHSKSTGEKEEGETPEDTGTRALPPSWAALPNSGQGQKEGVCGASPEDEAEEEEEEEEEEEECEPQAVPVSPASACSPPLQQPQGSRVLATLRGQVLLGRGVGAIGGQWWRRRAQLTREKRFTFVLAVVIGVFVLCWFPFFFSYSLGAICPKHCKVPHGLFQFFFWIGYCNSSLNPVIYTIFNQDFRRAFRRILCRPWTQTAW
Nature of the assay: Radioligand binding, adrenergic α2B ([3H]Rauwolscine). As to conditions: read-out: Percentage inhibition of ligand binding, Adrenergic α2B (0.03 μM), compound at 0.03 μM; [3H]Rauwolscine; repeat datapoints each shown. Summed up: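 Values are percent inhibition of specific radioligand binding. The receptor, expressed in CHO-K1 cells, was exposed to 2.5 nM [3H]Rauwolscine at 25° C for 60 min, with 10 μM Prazosin marking non-specific binding.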

The target of assay [3] is T3, rat adrenergic α1B receptor (Rattus norvegicus, UniProt P15823).
T3 construct: rat adrenergic α1B receptor obtained from Wistar Rat liver; from tissue; host or cells: Wistar rat liver
T3 sequence (P15823 1-515): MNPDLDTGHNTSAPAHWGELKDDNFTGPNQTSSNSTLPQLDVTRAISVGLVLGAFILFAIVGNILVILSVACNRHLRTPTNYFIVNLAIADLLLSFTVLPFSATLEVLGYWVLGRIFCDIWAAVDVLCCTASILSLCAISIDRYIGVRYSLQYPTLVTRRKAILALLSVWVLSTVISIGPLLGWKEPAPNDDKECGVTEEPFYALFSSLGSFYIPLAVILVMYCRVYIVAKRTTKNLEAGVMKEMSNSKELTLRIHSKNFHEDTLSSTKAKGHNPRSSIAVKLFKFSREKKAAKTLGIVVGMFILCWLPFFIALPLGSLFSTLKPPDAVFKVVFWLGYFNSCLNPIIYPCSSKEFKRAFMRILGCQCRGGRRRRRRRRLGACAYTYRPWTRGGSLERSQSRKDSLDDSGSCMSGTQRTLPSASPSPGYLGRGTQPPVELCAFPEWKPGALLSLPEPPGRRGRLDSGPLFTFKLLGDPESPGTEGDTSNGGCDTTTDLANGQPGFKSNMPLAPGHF
Nature of the assay: Radioligand binding, adrenergic α1B ([3H]Prazosin). As to conditions: read-out: Percentage inhibition of ligand binding, Adrenergic α1B (0.1 μM), compound at 0.1 μM; [3H]Prazosin; repeat datapoints each shown. Summed up:
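Rat α1B receptor from Wistar rat liver was incubated with 0.25 nM [3H]prazosin for 60 min at 25 °C in 50 mM Tris-HCl, pH 7.4, 0.5 mM EDTA. Non-specific binding was defined with 10 μM phentolamine. Bound radioligand was measured by filtration and counting, reported as percent inhibition of specific binding.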

The term inhibition denotes the relative decrease from the control value, in per cent. Turning to `Cc1ccc2c(c1)c1c(n2CC(O)c2cnn[nH]2)CCN2CCCC12` (stereo not drawn) [II-138], the inhibition at 0.1 µM came to 9% in assay [1] and 57% in assay [3]. For the same molecule, the inhibition at 0.03 µM in assay [2] is 77%.
On the same counts, the results for `Cc1ccc2c(c1)c1c(n2CC(O)c2ncc[nH]2)CCN2CCCC12` (stereo not drawn) [II-139, 1-(1H-imidazol-2-yl)-2-(10-methyl-2,3,5,6-tetrahydro-1H-indolizino[7,8-b]indol-7(11cH)-yl)ethanol] are 7%, 34% and 72%.
In the same order, the values of `Cc1ccc2c(c1)c1c(n2CC(O)c2cnc[nH]2)CCN2CCCC12` (stereo not drawn) [II-140, 1-(1H-imidazol-5-yl)-2-(10-methyl-2,3,5,6-tetrahydro-1H-indolizino[7,8-b]indol-7(11cH)-yl)ethanol] are 3%, 53% and 72%.
In the same order, the values of `Cc1ccc2c(c1)c1c(n2CC(C)(O)c2cncc(C(=O)O)c2)CCN(C)C1` (stereo not drawn) [II-141, 5-(1-(1,2,3,4-tetrahydro-2,8-dimethylpyrido[4,3-b]indol-5-yl)-2-hydroxypropan-2-yl)pyridine-3-carboxylic acid] are -2%, 7% and 22%.
On to `Cc1ccc2c(c1)c1c(n2CC(C)(O)c2cnco2)CCN(C)C1` (stereo not drawn) [II-142, 1-(1,2,3,4-tetrahydro-2,8-dimethylpyrido[4,3-b]indol-5-yl)-2-(oxazol-5-yl)propan-2-ol], for which the inhibition at 0.1 µM is -4% in assay [1] and 5% in assay [3]. Further, in assay [2], the inhibition at 0.03 µM stood at 23%.
In the same order, the values of `Cc1ccc2c(c1)c1c(n2CC(C)(O)c2ccc[nH]c2=O)CCN(C)C1` (stereo not drawn) [II-143, 3-(1-(1,2,3,4-tetrahydro-2,8-dimethylpyrido[4,3-b]indol-5-yl)-2-hydroxypropan-2-yl)pyridin-2(1H)-one] are -3%, 13% and 22%.
On the same counts, the results for `Cc1ccc2c(c1)c1c(n2CC(C)(O)c2cnccc2Cl)CCN(C)C1` (stereo not drawn) [II-148] are 27%, 21% and 93%.
In the same order, the values of `Cc1ccc2c(c1CO)c1c(n2CC(O)c2ccncc2)CCN(C)C1` (stereo not drawn) [II-150, 2-(9-(hydroxymethyl)-2,8-dimethyl-3,4-dihydro-1H-pyrido[4,3-b]indol-5(2H)-yl)-1-(pyridin-4-yl)ethanol] are 5%, 14% and 30%.
On to `Cc1ccc2c(c1CO)c1c(n2CC(C)(O)c2cccnc2)CCN(C)C1` (stereo not drawn) [II-153], for which the inhibition at 0.1 µM in assay [1] and in assay [3] was 2% each time. Also, in assay [2], the inhibition at 0.03 µM stood at 7%.
Consider `Cc1cc2c3c(n(CC(C)(O)c4cccnc4)c2cc1CO)CCN(C)C3` (stereo not drawn) [II-154], for which the inhibition at 0.1 µM in assay [1] amounted to 11%; in assay [3], 2%. Besides, in assay [2], the inhibition at 0.03 µM was found to be 73%.
Take `Cc1ccc2c(c1)c1c(n2C(C)(C)C(O)c2ccccc2)CCN(C)C1` (stereo not drawn) [II-187]: the inhibition at 0.1 µM was 10% in assay [1] and 54% in assay [3]. For the same molecule, in assay [2], the inhibition at 0.03 µM is 27%.
On the same counts, the results for `Cc1ccc2c(c1)c1c(n2CC(C)(F)c2cccnc2)CCN(C)C1` (stereo not drawn) [II-212, 5-(2-Fluoro-2-pyridin-3-yl-propyl)-2,8-dimethyl-2,3,4,5-tetrahydro-1H-pyrido[4,3-b]indole] are 19%, 29% and 73%.
In the same order, the values of `CN1CCc2c(c3cc(CO)ccc3n2CC(C)(F)c2cccnc2)C1` (stereo not drawn) [II-213, [5-(2-fluoro-2-pyridin-3-yl-propyl)-2-methyl-2,3,4,5-tetrahydro-1H-pyrido[4,3-b]indol-8-yl]-methanol] are 12%, -3% and 11%.
On to `Cc1ccc2c(c1)c1c(n2CC(CN)c2ccncc2)CCN(C)C1` (stereo not drawn) [II-221], for which the inhibition at 0.1 µM in assay [1] is 10%; in assay [3], -1%. The inhibition at 0.03 µM in assay [2] was 0%.
As for `Cc1ccc2c(c1)c1c(n2CC(CC(=O)C(C)(C)C)c2ccncc2)CCN(C)C1` (stereo not drawn) [II-222, 6-(2,8-dimethyl-1,2,3,4-tetrahydro-pyrido[4,3-b]indol-5-yl)-2,2-dimethyl-5-pyridin-4-yl-hexan-3-one], the values for the inhibition at 0.1 µM in assay [1] and in assay [3] were 26% and 19%, respectively. Moreover, the inhibition at 0.03 µM in assay [2] amounted to 99%.
In the same order, the values of `COC(=O)CC(Cn1c2c(c3cc(C)ccc31)CN(C)CC2)c1ccncc1` (stereo not drawn) [II-223, 4-(2,8-dimethyl-1,2,3,4-tetrahydro-pyrido[4,3-b]indol-5-yl)-3-pyridin-4-yl-butyric acid methyl ester] are 8%, 9% and 88%.
On the same counts, the results for `Cc1ccc2c(c1)c1c(n2CC(CCO)c2ccncc2)CCN(C)C1` (stereo not drawn) [II-224, 4-(2,8-dimethyl-1,2,3,4-tetrahydro-pyrido[4,3-b]indol-5-yl)-3-pyridin-4-yl-butan-1-ol] are 22%, 13% and 68%.
On the same counts, the results for `Cc1ccc2c(c1)c1c(n2CC(CO)c2ccncc2)CCN(C)C1` (stereo not drawn) [II-225] are -1%, 9% and 8%.
`Cc1ccc2c(c1)c1c(n2CC(CC(C)(C)O)c2ccncc2)CCN(C)C1` (stereo not drawn) [II-226, 5-(2,8-dimethyl-1,2,3,4-tetrahydro-pyrido[4,3-b]indol-5-yl)-2-methyl-4-pyridin-4-yl-pentan-2-ol]: the inhibition at 0.1 µM came out at 4% in assay [1] and 15% in assay [3]. In addition, in assay [2], the inhibition at 0.03 µM was determined as 40%.
On the same counts, the results for `Cc1ccc2c(c1)c1c(n2CC(CC(=O)O)c2ccncc2)CCN(C)C1` (stereo not drawn) [II-228] are 3%, -2% and 10%.
In the case of `Cc1ccc2c(c1)c1c(n2CC(CC(N)=O)c2ccncc2)CCN(C)C1` (stereo not drawn) [II-229, 4-(2,8-dimethyl-1,2,3,4-tetrahydro-pyrido[4,3-b]indol-5-yl)-3-pyridin-4-yl-butyramide], the values for the inhibition at 0.1 µM in assay [1] and in assay [3] were 6% and 3%, respectively. Further, the inhibition at 0.03 µM in assay [2] was 12%.
On the same counts, the results for `Cc1ccc2c(c1)c1c(n2CC(CC(=O)N(C)C)c2ccncc2)CCN(C)C1` (stereo not drawn) [II-230, 4-(2,8-dimethyl-1,2,3,4-tetrahydro-pyrido[4,3-b]indol-5-yl)-N,N-dimethyl-3-pyridin-4-yl-butyramide] are 1%, -2% and 22%.
